Assay results reported in patent EP1144368B1, “ACETYLENIC ALPHA-AMINO ACID-BASED SULFONAMIDE HYDROXAMIC ACID TACE INHIBITORS” (priority 1999, dated 2000).
Counter-ions that a name gives are not always drawn. Like-named read-outs stand apart in the source and are kept apart here.

Legend:
[1] = target: T1, MMP-1 (Homo sapiens, UniProt P03956); experiment: MMP-1 inhibition (thiopeptide or fluorescent peptide substrate); type: biochemical
T1 sequence (P03956 100-469): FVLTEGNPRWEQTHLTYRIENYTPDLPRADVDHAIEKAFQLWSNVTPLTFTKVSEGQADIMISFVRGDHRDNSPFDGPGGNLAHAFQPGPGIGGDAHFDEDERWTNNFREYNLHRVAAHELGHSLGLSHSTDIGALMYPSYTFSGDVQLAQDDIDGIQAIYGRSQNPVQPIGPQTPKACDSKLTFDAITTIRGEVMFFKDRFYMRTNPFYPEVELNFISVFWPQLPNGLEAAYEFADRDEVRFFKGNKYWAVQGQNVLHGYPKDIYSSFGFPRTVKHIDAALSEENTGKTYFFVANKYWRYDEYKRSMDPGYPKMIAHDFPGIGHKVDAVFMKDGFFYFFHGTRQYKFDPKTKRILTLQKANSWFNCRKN
Procedure: (§1) The enzyme activity is measured by the rate of the color increase. The thiopeptide substrate is made up fresh as a 20 mM stock in 100% DMSO and the DTNB is dissolved in 100% DMSO as a 100 mM stock and stored in the dark at room temperature. Both the substrate and DTNB are diluted together to 1 mM with substrate buffer (50 mM HEPES pH 7.5, 5 mM CaCl2) before use. The stock of enzyme is diluted with buffer (50 mM HEPES, pH 7.5, 5 mM CaCl2, 0.02% Brij) to the desired final concentration.
(§2) Alternatively, a fluorescent peptide substrate is used. In this test procedure, the peptide substrate contains a fluorescent group and a quenching group. Upon cleavage of the substrate by an MMP, the fluorescence that is generated is quantitated on the fluorescence plate reader. The assay is run in HCBC assay buffer (50mM HEPES, pH 7.0, 5 mM Ca^+2, 0.02% Brij, 0.5% Cysteine), with human recombinant MMP-1, MMP-9, or MMP-13. The substrate is dissolved in methanol and stored frozen in 1 mM aliquots. For the assay, substrate and enzymes are diluted in HCBC buffer to the desired concentrations. Compounds are added to the 96 well plate containing enzyme and the reaction is started by the addition of substrate.
(§3) For either the thiopeptide or fluorescent peptide test procedures, the slope of the line is calculated and represents the reaction rate. The linearity of the reaction rate is confirmed (r^2 >0.85). The mean (x±sem) of the control rate is calculated and compared for statistical significance (p<0.05) with drug-treated rates using Dunnett's multiple comparison test.

[2] = target: MMP-9 (Homo sapiens, UniProt P14780); experiment: MMP-9 inhibition (thiopeptide or fluorescent peptide substrate); type: biochemical
MMP-9, sequence (P14780 107-707 limits assumed): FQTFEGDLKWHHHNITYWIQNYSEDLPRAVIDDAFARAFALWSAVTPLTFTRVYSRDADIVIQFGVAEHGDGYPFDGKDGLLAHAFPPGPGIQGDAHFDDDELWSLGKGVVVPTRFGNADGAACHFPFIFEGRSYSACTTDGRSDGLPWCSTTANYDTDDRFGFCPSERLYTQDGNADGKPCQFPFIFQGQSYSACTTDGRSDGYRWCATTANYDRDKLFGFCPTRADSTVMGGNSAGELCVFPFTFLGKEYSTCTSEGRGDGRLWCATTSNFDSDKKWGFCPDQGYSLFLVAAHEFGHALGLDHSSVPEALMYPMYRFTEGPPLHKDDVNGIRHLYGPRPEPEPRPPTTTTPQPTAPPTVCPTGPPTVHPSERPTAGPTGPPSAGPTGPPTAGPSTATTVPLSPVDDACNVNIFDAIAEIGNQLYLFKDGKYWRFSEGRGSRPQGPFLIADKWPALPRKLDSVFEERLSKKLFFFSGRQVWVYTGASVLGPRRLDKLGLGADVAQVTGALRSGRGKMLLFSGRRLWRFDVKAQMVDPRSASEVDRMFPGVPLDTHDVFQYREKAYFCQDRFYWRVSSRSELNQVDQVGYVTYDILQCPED
Procedure: as §1, §2, §3

[3] = target: MMP-13 (Homo sapiens, UniProt P45452); experiment: MMP-13 inhibition (thiopeptide or fluorescent peptide substrate); type: biochemical
Procedure: as §1, §2, §3

[4] = test system: THP-1 cells; experiment: THP-1 Soluble Protein Assay (LPS-stimulated; ELISA of TNF-a, TNF-R p75/80, TNF-R p55/60, IL-8); type: cell-based, human; details: for inhibition at 3 µM: Homo sapiens
[5] = target: TACE (Homo sapiens, UniProt P78536); experiment: TACE inhibition (fluorescent peptidyl substrate); type: biochemical; details: read-out: TACE IC50
TACE, sequence (P78536 215-824): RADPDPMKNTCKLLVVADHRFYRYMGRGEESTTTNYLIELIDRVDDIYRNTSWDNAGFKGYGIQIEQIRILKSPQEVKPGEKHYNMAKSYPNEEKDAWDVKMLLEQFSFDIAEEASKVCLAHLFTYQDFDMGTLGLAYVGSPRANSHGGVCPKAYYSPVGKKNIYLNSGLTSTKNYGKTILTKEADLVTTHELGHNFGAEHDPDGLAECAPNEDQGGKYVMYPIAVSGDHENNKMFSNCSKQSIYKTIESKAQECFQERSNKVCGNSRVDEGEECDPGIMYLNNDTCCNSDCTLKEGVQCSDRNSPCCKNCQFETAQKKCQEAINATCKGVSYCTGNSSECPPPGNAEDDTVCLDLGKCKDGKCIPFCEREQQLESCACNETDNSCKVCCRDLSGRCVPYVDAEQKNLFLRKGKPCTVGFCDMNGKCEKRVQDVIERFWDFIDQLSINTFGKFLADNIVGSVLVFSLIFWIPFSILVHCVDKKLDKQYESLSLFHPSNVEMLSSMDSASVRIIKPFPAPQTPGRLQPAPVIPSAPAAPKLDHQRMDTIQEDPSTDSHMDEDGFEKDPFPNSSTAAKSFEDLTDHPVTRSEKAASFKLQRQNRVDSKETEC
Procedure: Using 96-well black microtiter plates, each well receives a solution composed of 10 µL TACE (final concentration 1µg/mL), 70µL Tris buffer, pH 7.4 containing 10% glycerol (final concentration 10 mM), and 10 µL of test compound solution in DMSO (final concentration 1µM, DMSO concentration <1%) and incubated for 10 minutes at room temperature.
The reaction is read (excitation 340 nm, emission 420 nm) for 10 min. and the increase in fluorescence over time is plotted as a linear line. The slope of the line is calculated and represents the reaction rate.
The linearity of the reaction rate is confirmed (r^2 >0.85). The mean (x±sem) of the control rate is calculated and compared for statistical significance (p<0.05) with drug-treated rates using Dunnett's multiple comparison test.

[6] = THP-1, read-out: THP % inhibition @ 3 µM, 3 µM

Row | Molecule | IC50 [1] [µM] | IC50 [2] [µM] | IC50 [3] [µM] | inhibition at 3 µM ([4]; THP-1, read-out: THP % inhibition @ 3 µM) [%] | IC50 [5] [µM] | inhibition at 3 µM [4, 6] [%] | THP % inhibition @ 3 µM ([4]; 3 µM) [%]
1 | CC#CCOc1ccc(S(=O)(=O)N(CC(=O)NO)Cc2cccnc2)cc1 [Example 23, 2-[(4-But-2-ynyloxy-benzenesulfonyl)-pyridin-3-ylmethyl-amino]-N-hydroxy-acetamide hydrochloride] | 1.16 | 0.04 | 0.02 | 63 | – | – | –
2 | CC#CCOc1ccc(S(=O)(=O)N(C)C(C(=O)NO)C(C)(C)SCCCN(CC)CC)cc1 (stereo not drawn) [Example 148] | 0.025 | 0.0048 | 0.0052 | – | 0.088 | 87 | –
3 | 2-[(4-But-2-ynyloxy-benenesulfonyl)-methyl-amino]-N-hydroxy-3-methyl-3-ethylsulfanyl-butyramide [Example 150] | 0.025 | 0.02 | 0.0093 | – | 0.051 | – | 86
4 | CC#CCOc1ccc(S(=O)(=O)N(CC#CCN(CC)CC)C(C(=O)NO)C(C)C)cc1 (stereo not drawn) [Example 126, 2-{{[4-(2-Butynyloxy)phenyl]sulfonyl}[4-(diethylamino)-2-butynyl]amino}-N-hydroxy-3-methylbutanamide] | 0.212 | 0.149 | 0.036 | – | 0.073 | 93 | –
5 | CC#CCSc1ccc(S(=O)(=O)N(C)CC(=O)NO)cc1 [Example 134, 2-[(4-But-2-ynylthiophenylsulfonyl)methylamino]-N-hydroxyacetamide] | 4.95 | 0.111 | 0.084 | – | – | 14 | –
6 | CN(CC(=O)NO)S(=O)(=O)c1ccc(OCC#Cc2ccc(Cl)cc2)cc1 [Example 132, 2-[[(4-{[3-(4-Chlorophenyl)-2-propynyl]oxy}phenyl)sulfonyl](methyl)amino]-N-hydroxyacetamide] | > 10 | 2.37 | 1.12 | – | 1.1 | 27 | –
7 | CC#CCOc1ccc(S(=O)(=O)N(C)C(C(=O)NO)C(C)(C)SCCN2CCCC2C(=O)OC)cc1 (stereo not drawn) [Example 145] | 0.018 | 0.0071 | 0.0025 | – | 0.109 | 83 | –
